Assays:
[1] = tested on: STING inhibition in human whole blood (IFNα2α production); assay: Human whole blood assay (HWBA): cGAMP-stimulated IFNα2α production; type: cell-based; settings: Homo sapiens
Summary of the method: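 Na-citrate human whole blood from ≥3 healthy donors, preincubated 60 min at room temperature with compound (8 concentrations, top 10 μM, ~1:5 steps, 0.1% DMSO), then stimulated with cGAMP and incubated 22 h at 37 °C. Plasma IFNα2α measured by MSD immunoassay; % control versus stimulated/unstimulated wells, IC50 by 4-parameter logistic fit.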

human STING WT (R232) = biological target: T1, human STING WT (R232) (Homo sapiens, UniProt Q86WV6, H232R); assay: Human STING HTRF binding assay (competitive, Cisbio 64BDSTGPEG)
T1 construct: purchased Cisbio 64BDSTGPEG
Experimental: Binders to human STING WT (R232) were identified using a competitive HTRF assay format (Cisbio 64BDSTGPEG), which uses d2-labeled STING ligand, a 6His (SEQ ID NO: 2) tagged human STING protein, and an anti 6His (SEQ ID NO: 2) Cryptate-labeled antibody. Compounds compete with the STING ligand-d2 and thereby prevents FRET from occurring, which can be measured by an EnVision™ reader (PerkinElmer).
Assay method: Compounds were delivered as 10 mM DMSO solution, serially diluted by an Agilent Bravo Workstation and transferred to the 384 well assay plate (Perkin Elmer #6005359) using a Cybiwell dispenser. Typically, 8 concentrations were used with the highest concentration at 10 μM or 1 μM in the final assay volume followed by ~1:5 dilution steps. DMSO concentration was set to 1% in the final assay volume. The 384 well assay plate contained 20 test compounds and DMSO in column 23 and 24. A cGAMP standard dilution row was prepared according to the manufacturer and transferred to each assay plate. After transfer of compound solution or dilution buffer for negative (high) and positive (low) controls, 5 μl of the human STING protein (cyclic binding domain (residues 138-379) of the WT R232 human version, fused to a 6 His tag (SEQ ID NO: 2) at the Nter part; 1:50 dilution in detection buffer) were dispensed to all wells except of the positive control, which received detection buffer only. Plates were the centrifuged for 20 sec at 1000 rpm. After that, 10 μl of Anti-6His-Cryptate antibody/Sting ligand-d2 mix was added to all wells using a Multidrop combi dispenser, followed by another sec/1000 rpm centrifugation step. After an incubation of the plates for 180 min at room temperature, […] at […] (HTRF ratio) was measured using an Envison Reader (PerkinElmer).
Data evaluation and calculation: For data evaluation and calculation, HTRF ratios were calibrated using the cGAMP standard curve. After that, the measurement of the low control was set as 0% control and the measurement of the high control was set as 100% control. The IC50 values were calculated using the standard 4 parameter logistic regression formula. Calculation: [y=(a−d)/(1+(x/c)^b)+d], a=low value, d=high value; x=conc M; c=IC50 M; b=slope;

T1 sequence (Q86WV6 138-379 H232R): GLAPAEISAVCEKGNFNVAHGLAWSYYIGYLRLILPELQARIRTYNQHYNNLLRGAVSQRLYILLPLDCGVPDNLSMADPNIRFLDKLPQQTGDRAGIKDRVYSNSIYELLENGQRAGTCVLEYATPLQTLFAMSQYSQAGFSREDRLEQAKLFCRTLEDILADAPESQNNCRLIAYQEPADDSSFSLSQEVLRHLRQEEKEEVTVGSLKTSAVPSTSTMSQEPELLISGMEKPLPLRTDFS

Compound	IC50 [1]	IC50 (human STING WT (R232))
Cn1cc2cc(-c3nc(-c4cccc5nn(C[C@H](O)c6ccccc6)cc45)c(C4CC4)n3C)c(OC(F)F)cc2n1 [Example 34, (1R)-2-(4-{5-cyclopropyl-2-[6-(difluoromethoxy)-2-methyl-2H-indazol-5-yl]-1-methyl-1H-imidazol-4-yl}-2H-indazol-2-yl)-1-phenylethan-1-ol]	120 nM	7.1 nM
Cc1c(C2CC2)c(-c2c(F)ccc3nn(C[C@H](O)c4ccccc4)cc23)nn1-c1cc2cn(C)nc2nc1C1CC1 [Example 35, (1R)-2-[4-(4-cyclopropyl-1-{6-cyclopropyl-2-methyl-2H-pyrazolo[3,4-b]pyridin-5-yl}-5-methyl-1H-pyrazol-3-yl)-5-fluoro-2H-indazol-2-yl]-1-phenylethan-1-ol]	130 nM	19.3 nM
CNC(=O)CO[C@@H](Cn1cc2c(-c3nn(-c4cc5cn(C)nc5nc4C)c(C)c3C(C)C)cccc2n1)c1ccccc1 [Example 36, 2-[(1R)-2-[4-(1-{2,6-dimethyl-2H-pyrazolo[3,4-b]pyridin-5-yl)-5-methyl-4-(propan-2-yl)-1H-pyrazol-3-yl)-2H-indazol-2-yl]-1-phenylethoxy]-N-methylacetamide]	130 nM	14.6 nM
Cc1nc2nn(CCO)cc2cc1-n1nc(-c2cccc3nn(C[C@H](O)c4ccccc4)cc23)c(C(C)C)c1C [Example 37, (1R)-2-(4-{1-[2-(2-hydroxyethyl)-6-methyl-2H-pyrazolo[3,4-b]pyridin-5-yl]-5-methyl-4-(propan-2-yl)-1H-pyrazol-3-yl}-2H-indazol-2-yl)-1-phenylethan-1-ol]	130 nM	5.5 nM
Cc1nc2nn(CCN(C)C)cc2cc1-n1nc(-c2cccc3nn(C[C@H](O)c4ccccc4)cc23)c(C(C)C)c1C [Example 39, (1R)-2-[4-(1-{2-[2-(dimethylamino)ethyl]-6-methyl-2H-pyrazolo[3,4-b]pyridin-5-yl}-5-methyl-4-(propan-2-yl)-1H-pyrazol-3-yl)-2H-indazol-2-yl]-1-phenylethan-1-ol]	130 nM	15.4 nM
Cc1nc2nn(CCCN3CCC(F)(F)C3)cc2cc1-n1nc(-c2cccc3nn(C[C@H](O)c4ccccc4)cc23)c(C(C)C)c1C [Example 40, (1R)-2-[4-(1-{2-[3-(3,3-difluoropyrrolidin-1-yl)propyl]-6-methyl-2H-pyrazolo[3,4-b]pyridin-5-yl}-5-methyl-4-(propan-2-yl)-1H-pyrazol-3-yl)-2H-indazol-2-yl]-1-phenylethan-1-ol]	140 nM	28.4 nM
Cn1cc2cc(-c3nc(-c4cccc5nn(C[C@H](O)c6ccc(OCCC(C)(C)O)cc6)cc45)c(C4CC4)n3C)c(C3CC3)nc2n1 [Example 41, 4-{4-[(1R)-2-[4-(5-cyclopropyl-2-{6-cyclopropyl-2-methyl-2H-pyrazolo[3,4-b]pyridin-5-yl}-1-methyl-1H-imidazol-4-yl)-2H-indazol-2-yl]-1-hydroxyethyl]phenoxy}-2-methylbutan-2-ol]	140 nM	6.4 nM
CNCc1nc2nn(C)cc2cc1-n1nc(-c2cccc3nn(C[C@H](O)c4ccccc4)cc23)c(C(C)C)c1C [Example 42, (1R)-2-[4-(5-methyl-1-{2-methyl-6-[(methylamino)methyl]-2H-pyrazolo[3,4-b]pyridin-5-yl}-4-(propan-2-yl)-1H-pyrazol-3-yl)-2H-indazol-2-yl]-1-phenylethan-1-ol]	140 nM	16.7 nM
Cc1nc2nn(C)cc2cc1-n1nc(-c2cccc3nn(C[C@H](O)c4ccc(F)c(F)c4)cc23)c(C(C)C)c1C [Example 44, (1R)-1-(3,4-difluorophenyl)-2-[4-(1-{2,6-dimethyl-2H-pyrazolo[3,4-b]pyridin-5-yl}-5-methyl-4-(propan-2-yl)-1H-pyrazol-3-yl)-2H-indazol-2-yl]ethan-1-ol]	140 nM	16.9 nM
Cc1nc2nn(CCCCN3CCN(C)CC3)cc2cc1-n1nc(-c2cccc3nn(C[C@H](O)c4ccccc4)cc23)c(C(C)C)c1C [Example 45, (1R)-2-[4-(5-methyl-1-{6-methyl-2-[4-(4-methylpiperazin-1-yl)butyl]-2H-pyrazolo[3,4-b]pyridin-5-yl}-4-(propan-2-yl)-1H-pyrazol-3-yl)-2H-indazol-2-yl]-1-phenylethan-1-ol]	140 nM	18.1 nM
Cc1nc2nn(C)cc2cc1-n1nc(-c2cccc3nn(C[C@H](O)c4ccc(F)cc4)cc23)c(C(C)C)c1C [Example 46, (1R)-2-[4-(1-{2,6-dimethyl-2H-pyrazolo[3,4-b]pyridin-5-yl}-5-methyl-4-(propan-2-yl)-1H-pyrazol-3-yl)-2H-indazol-2-yl]-1-(4-fluorophenyl)ethan-1-ol]	140 nM	15.2 nM
Cc1c(C(C)C)c(-c2cccc3nn(C[C@H](O)c4ccccc4)cc23)nn1-c1cc2cn(C)nc2nc1C1CCOC1 (stereo partly drawn) [Example 47, (1R)-2-(4-{5-methyl-1-[2-methyl-6-(oxolan-3-yl)-2H-pyrazolo[3,4-b]pyridin-5-yl]-4-(propan-2-yl)-1H-pyrazol-3-yl}-2H-indazol-2-yl)-1-phenylethan-1-ol]	150 nM	11.9 nM
CCCn1cc2cc(-c3nc(-c4cccc5nn(CC(F)(F)c6ccccc6)cc45)c(C4CC4)n3C)c(C3CC3)nc2n1 [Example 48, 4-(5-cyclopropyl-2-{6-cyclopropyl-2-propyl-2H-pyrazolo[3,4-b]pyridin-5-yl}-1-methyl-1H-imidazol-4-yl)-2-(2,2-difluoro-2-phenylethyl)-2H-indazole]	150 nM	22.7 nM
Cc1nc2nn(CCCN3CCOCC3)cc2cc1-n1nc(-c2cccc3nn(C[C@H](F)c4ccccc4)cc23)c(C(C)C)c1C [Example 49, 2-[(2R)-2-fluoro-2-phenylethyl]-4-(5-methyl-1-{6-methyl-2-[3-(morpholin-4-yl)propyl]-2H-pyrazolo[3,4-b]pyridin-5-yl}-4-(propan-2-yl)-1H-pyrazol-3-yl)-2H-indazole]	160 nM	22.2 nM
Cc1c(C(C)C)c(-c2cccc3nn(C[C@H](O)c4ccccc4)cc23)nn1-c1cc2cn(C)nc2[n+]([O-])c1C1CC1 [Example 50, 6-cyclopropyl-5-(3-{2-[(2R)-2-hydroxy-2-phenylethyl]-2H-indazol-4-yl}-5-methyl-4-(propan-2-yl)-1H-pyrazol-1-yl)-2-methyl-2H-pyrazolo[3,4-b]pyridin-7-ium-7-olate]	160 nM	16.3 nM
Cc1c(C(C)C)c(-c2cccc3nn(C[C@H](O)c4ccccc4)cc23)nn1-c1cc2cn(C)nc2nc1C1(F)CC1 [Example 51, (1R)-2-(4-{1-[6-(1-fluorocyclopropyl)-2-methyl-2H-pyrazolo[3,4-b]pyridin-5-yl]-5-methyl-4-(propan-2-yl)-1H-pyrazol-3-yl}-2H-indazol-2-yl)-1-phenylethan-1-ol]	170 nM	16.8 nM
CO[C@@H](Cn1cc2c(-c3nn(-c4cc5cn(C)nc5nc4C)c(C)c3C(C)C)cccc2n1)c1ccccc1 [Example 52, 4-(1-{2,6-dimethyl-2H-pyrazolo[3,4-b]pyridin-5-yl}-5-methyl-4-(propan-2-yl)-1H-pyrazol-3-yl)-2-[(2R)-2-methoxy-2-phenylethyl]-2H-indazole]	180 nM	19.9 nM
Cc1c(C(C)C)c(-c2cccc3nn(C[C@H](O)c4ccccc4)cc23)nn1-c1cc2cn(C)nc2nc1C1CCC1 [Example 53, (1R)-2-[4-(1-{6-cyclobutyl-2-methyl-2H-pyrazolo[3,4-b]pyridin-5-yl}-5-methyl-4-(propan-2-yl)-1H-pyrazol-3-yl)-2H-indazol-2-yl]-1-phenylethan-1-ol]	190 nM	28.6 nM
Cc1c(C(C)C)c(-c2cccc3nn(C[C@H](O)c4ccccc4)cc23)nn1-c1cc2cn(C)nc2nc1CC1CC1 [Example 54, (1R)-2-(4-{1-[6-(cyclopropylmethyl)-2-methyl-2H-pyrazolo[3,4-b]pyridin-5-yl]-5-methyl-4-(propan-2-yl)-1H-pyrazol-3-yl}-2H-indazol-2-yl)-1-phenylethan-1-ol]	200 nM	86.9 nM
Cn1cc2cc(-c3nc(-c4cccc5nn(C[C@H](O)c6ccc(O)cc6)cc45)c(C4CC4)n3C)c(C3CC3)nc2n1 [Example 55, 4-[(1R)-2-[4-(5-cyclopropyl-2-{6-cyclopropyl-2-methyl-2H-pyrazolo[3,4-b]pyridin-5-yl}-1-methyl-1H-imidazol-4-yl)-2H-indazol-2-yl]-1-hydroxyethyl]phenol]	200 nM	3.7 nM

From patent publication US20260265244A1, “HETEROCYCLIC COMPOUNDS AS STING ANTAGONISTS” (Boehringer Ingelheim International GmbH, priority 2022, published 2026)
